Values belong to the molecule of their own block, whether it stands above or below them.
Key:
[1] = target: Mitogen-activated protein kinase kinase kinase kinase 4 (Homo sapiens, UniProt O95819); experiment: HGK [ZC1(M4K4CGP1)] Takeda global kinase panel
[2] = target: Serine/threonine-protein kinase SIK1 (Homo sapiens, UniProt P57059); experiment: SIK(SIK1LHY1) Takeda global kinase panel
[3] = target: STE20/SPS1-related proline-alanine-rich protein kinase (Homo sapiens, UniProt Q9UEW8); experiment: STLK3(ST39LGRJ) Takeda global kinase panel
[4] = target: T1, 5-hydroxytryptamine receptor 1A (Homo sapiens) (UniProt P08908); details: Compound concentration 10.0 uM
T1 sequence (whole entry): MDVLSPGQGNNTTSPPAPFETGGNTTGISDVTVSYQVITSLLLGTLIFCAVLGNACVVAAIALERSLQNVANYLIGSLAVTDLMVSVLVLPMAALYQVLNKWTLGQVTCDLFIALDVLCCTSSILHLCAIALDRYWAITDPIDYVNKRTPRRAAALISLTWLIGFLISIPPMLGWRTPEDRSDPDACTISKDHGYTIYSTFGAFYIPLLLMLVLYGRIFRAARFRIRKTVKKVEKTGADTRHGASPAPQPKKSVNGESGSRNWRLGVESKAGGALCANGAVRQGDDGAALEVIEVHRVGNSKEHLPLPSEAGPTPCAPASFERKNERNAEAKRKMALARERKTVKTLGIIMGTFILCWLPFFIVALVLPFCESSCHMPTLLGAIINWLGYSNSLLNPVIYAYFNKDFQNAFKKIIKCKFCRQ

[5] = target: D(1A) dopamine receptor (Homo sapiens) (UniProt P21728); details: Compound concentration 10.0 uM
[6] = target: D(3) dopamine receptor (Homo sapiens) (UniProt P35462); details: Compound concentration 10.0 uM
[7] = target: D(1B) dopamine receptor (Homo sapiens) (UniProt P21918); details: Compound concentration 10.0 uM
[8] = target: Beta-2 adrenergic receptor (Homo sapiens) (UniProt P07550); details: Compound concentration 10.0 uM
[9] = target: T2, Muscarinic acetylcholine receptor M1 (Homo sapiens) (UniProt P11229); details: Compound concentration 10.0 uM
T2 sequence (whole entry): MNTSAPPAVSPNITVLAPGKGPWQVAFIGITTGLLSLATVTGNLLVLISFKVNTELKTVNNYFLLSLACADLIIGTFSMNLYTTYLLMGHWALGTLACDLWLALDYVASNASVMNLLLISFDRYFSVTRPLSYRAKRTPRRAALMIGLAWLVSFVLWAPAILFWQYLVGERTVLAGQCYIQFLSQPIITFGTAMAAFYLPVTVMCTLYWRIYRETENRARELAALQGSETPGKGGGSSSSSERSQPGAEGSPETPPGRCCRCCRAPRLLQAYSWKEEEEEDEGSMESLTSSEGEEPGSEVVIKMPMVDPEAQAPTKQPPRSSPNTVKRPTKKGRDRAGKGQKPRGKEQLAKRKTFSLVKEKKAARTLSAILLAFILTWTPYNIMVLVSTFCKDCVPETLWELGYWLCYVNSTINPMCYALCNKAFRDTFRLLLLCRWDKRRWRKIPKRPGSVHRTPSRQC

[10] = target: T3, Muscarinic acetylcholine receptor M2 (Homo sapiens) (UniProt P08172); details: Compound concentration 10.0 uM
T3 sequence (whole entry): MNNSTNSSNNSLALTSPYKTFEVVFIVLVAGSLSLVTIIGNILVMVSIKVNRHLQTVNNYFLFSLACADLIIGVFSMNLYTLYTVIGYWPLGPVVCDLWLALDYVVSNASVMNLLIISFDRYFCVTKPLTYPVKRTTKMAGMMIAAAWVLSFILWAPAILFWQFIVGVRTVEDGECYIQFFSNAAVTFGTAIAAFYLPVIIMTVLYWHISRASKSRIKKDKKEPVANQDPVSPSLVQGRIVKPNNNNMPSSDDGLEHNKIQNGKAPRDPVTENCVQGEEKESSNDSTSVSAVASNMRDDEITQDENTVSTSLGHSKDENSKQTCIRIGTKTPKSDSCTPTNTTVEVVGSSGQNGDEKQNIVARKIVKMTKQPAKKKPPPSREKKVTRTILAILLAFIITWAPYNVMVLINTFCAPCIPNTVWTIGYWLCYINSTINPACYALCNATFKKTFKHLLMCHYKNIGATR

[11] = target: Beta-3 adrenergic receptor (Homo sapiens) (UniProt P13945); details: Compound concentration 10.0 uM
[12] = target: Alpha-1D adrenergic receptor (Homo sapiens) (UniProt P25100); details: Compound concentration 10.0 uM
[13] = target: Sigma intracellular receptor 2 (Homo sapiens) (UniProt Q5BJF2); details: Compound concentration 10.0 uM
[14] = target: 5'-AMP-activated protein kinase catalytic subunit alpha-2 (Homo sapiens, UniProt P54646); experiment: AMPKalpha2(PRA2LGY1) Takeda global kinase panel
[15] = target: Calcium/calmodulin-dependent protein kinase type II subunit alpha (Homo sapiens, UniProt Q9UQM7); experiment: CaMK2alpha(CA2ACGT1) Takeda global kinase panel
[16] = target: Calcium/calmodulin-dependent protein kinase type II subunit beta (Homo sapiens, UniProt Q13554); experiment: CaMK2beta(CA2BCGT1) Takeda global kinase panel
[17] = target: Calcium/calmodulin-dependent protein kinase type II subunit gamma (Homo sapiens, UniProt Q13555); experiment: CaMK2gamma(CA2GLGT5) Takeda global kinase panel
[18] = target: Epithelial discoidin domain-containing receptor 1 (Homo sapiens, UniProt Q08345); experiment: DDR1(DDR1LGF1) Takeda global kinase panel
[19] = target: Fibroblast growth factor receptor 1 (Homo sapiens, UniProt P11362); experiment: FGFR1(FGF1LGF1) Takeda global kinase panel
[20] = target: Fibroblast growth factor receptor 2 (Homo sapiens, UniProt P21802); experiment: FGFR2(FGF2LGF1) Takeda global kinase panel
[21] = target: Interleukin-1 receptor-associated kinase 1 (Homo sapiens, UniProt P51617); experiment: IRAK1(IRK1LGF1) Takeda global kinase panel
[22] = target: Leucine-rich repeat serine/threonine-protein kinase 2 (Homo sapiens, UniProt Q5S007); experiment: LRRK2(LRR2PGF1) Takeda global kinase panel
Chain of Leucine-rich repeat serine/threonine-protein kinase 2 (Q5S007 whole entry): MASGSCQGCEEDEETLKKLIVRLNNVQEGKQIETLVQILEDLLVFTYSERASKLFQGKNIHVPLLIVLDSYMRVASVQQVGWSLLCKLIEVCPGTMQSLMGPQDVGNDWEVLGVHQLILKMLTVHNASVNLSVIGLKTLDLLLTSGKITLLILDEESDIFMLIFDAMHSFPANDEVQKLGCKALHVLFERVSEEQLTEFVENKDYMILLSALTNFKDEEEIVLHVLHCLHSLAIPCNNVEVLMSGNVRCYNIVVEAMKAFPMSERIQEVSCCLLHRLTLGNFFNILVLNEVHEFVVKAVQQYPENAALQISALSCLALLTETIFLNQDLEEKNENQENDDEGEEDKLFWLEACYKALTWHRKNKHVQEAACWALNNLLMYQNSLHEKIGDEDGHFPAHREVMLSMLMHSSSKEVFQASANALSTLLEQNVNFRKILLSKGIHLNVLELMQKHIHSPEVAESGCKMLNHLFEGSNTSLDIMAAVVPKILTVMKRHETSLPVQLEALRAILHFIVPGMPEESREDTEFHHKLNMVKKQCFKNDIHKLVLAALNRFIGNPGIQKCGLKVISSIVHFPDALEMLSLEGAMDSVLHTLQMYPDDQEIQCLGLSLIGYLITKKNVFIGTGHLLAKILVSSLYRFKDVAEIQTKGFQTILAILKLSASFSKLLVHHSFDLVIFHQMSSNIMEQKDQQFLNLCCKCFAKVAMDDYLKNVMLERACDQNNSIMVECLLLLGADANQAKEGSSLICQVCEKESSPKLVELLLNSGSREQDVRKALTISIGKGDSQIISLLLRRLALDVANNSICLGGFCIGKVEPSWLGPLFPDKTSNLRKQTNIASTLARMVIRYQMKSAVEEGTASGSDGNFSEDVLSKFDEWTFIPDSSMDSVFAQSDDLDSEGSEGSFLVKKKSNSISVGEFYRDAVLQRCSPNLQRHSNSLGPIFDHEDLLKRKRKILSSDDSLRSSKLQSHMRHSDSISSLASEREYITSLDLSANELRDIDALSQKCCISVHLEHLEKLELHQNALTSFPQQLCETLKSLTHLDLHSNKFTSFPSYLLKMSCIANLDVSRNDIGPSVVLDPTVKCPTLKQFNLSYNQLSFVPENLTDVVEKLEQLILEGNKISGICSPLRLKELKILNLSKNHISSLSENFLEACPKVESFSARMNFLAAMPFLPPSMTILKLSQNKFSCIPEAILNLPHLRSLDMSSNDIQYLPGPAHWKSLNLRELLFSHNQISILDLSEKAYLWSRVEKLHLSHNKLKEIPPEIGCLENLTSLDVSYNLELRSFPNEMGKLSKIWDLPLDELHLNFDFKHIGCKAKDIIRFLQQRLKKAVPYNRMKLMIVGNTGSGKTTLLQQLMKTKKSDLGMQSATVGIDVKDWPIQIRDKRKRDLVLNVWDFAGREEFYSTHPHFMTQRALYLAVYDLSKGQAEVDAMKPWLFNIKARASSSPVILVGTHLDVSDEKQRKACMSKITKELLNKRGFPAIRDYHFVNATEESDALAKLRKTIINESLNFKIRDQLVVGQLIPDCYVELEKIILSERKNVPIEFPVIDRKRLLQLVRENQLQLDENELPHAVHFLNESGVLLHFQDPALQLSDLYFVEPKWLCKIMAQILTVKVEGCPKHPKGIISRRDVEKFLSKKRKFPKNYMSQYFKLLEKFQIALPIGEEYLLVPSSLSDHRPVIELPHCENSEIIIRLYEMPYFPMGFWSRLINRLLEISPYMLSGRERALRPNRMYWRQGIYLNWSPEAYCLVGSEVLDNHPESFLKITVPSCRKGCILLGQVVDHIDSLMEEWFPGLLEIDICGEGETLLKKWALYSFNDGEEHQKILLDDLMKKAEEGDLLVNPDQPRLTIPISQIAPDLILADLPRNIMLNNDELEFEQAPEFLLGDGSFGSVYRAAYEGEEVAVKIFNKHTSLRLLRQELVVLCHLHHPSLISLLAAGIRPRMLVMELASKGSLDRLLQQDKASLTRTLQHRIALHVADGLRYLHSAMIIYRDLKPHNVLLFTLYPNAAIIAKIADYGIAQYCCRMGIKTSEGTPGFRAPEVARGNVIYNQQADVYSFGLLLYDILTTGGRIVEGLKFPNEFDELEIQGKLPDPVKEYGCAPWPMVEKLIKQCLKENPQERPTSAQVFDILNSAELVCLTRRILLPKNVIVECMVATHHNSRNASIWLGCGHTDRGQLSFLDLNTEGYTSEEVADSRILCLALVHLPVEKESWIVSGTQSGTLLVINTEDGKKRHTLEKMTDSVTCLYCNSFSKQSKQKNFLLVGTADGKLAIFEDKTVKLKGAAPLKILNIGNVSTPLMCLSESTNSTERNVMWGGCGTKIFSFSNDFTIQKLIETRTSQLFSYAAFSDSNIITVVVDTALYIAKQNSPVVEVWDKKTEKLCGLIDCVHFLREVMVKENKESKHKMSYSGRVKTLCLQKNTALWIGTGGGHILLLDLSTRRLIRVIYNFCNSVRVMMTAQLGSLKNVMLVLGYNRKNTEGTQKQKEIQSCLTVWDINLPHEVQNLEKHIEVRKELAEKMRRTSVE

[23] = target: Dual specificity mitogen-activated protein kinase kinase 7 (Homo sapiens, UniProt O14733); experiment: MAP2K7(M2K7CGRI) Takeda global kinase panel
[24] = target: Hepatocyte growth factor receptor (Homo sapiens, UniProt P08581); experiment: Met([…]) Takeda global kinase panel
Chain of Hepatocyte growth factor receptor (P08581 whole entry): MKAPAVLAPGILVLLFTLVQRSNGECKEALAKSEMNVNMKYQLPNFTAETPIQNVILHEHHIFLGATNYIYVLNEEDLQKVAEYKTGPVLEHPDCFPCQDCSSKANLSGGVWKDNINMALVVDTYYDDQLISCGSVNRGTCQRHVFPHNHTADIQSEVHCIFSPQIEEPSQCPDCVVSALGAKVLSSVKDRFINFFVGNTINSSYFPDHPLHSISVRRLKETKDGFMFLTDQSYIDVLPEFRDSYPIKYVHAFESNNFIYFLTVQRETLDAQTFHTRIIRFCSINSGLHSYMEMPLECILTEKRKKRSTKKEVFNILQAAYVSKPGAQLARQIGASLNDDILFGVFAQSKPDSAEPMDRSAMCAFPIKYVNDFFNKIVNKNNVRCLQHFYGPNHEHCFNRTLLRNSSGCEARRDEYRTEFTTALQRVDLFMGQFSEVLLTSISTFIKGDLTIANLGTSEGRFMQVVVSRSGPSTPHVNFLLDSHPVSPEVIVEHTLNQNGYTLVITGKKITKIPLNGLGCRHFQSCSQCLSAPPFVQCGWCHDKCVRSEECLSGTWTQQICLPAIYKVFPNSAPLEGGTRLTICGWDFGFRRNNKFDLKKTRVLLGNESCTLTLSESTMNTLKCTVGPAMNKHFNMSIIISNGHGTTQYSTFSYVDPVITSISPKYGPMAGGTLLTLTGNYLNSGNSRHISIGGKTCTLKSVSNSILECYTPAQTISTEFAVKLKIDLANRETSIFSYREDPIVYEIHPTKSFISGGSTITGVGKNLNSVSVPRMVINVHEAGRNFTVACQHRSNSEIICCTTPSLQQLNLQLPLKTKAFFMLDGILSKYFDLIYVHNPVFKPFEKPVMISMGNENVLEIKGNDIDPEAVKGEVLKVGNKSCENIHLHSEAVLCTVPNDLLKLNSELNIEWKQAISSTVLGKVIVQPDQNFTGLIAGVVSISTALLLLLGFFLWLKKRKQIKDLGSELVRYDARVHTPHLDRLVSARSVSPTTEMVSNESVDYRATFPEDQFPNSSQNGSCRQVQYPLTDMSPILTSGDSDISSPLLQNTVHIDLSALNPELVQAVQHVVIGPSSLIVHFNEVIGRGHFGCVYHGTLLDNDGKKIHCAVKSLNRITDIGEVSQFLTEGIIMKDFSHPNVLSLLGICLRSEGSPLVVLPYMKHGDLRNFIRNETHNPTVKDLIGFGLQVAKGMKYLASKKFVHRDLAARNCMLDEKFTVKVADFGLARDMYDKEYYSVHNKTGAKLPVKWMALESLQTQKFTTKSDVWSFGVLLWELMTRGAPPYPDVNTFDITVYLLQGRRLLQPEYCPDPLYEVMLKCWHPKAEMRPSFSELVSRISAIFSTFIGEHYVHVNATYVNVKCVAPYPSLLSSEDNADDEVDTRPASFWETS

[25] = target: Ribosomal protein S6 kinase alpha-3 (Homo sapiens, UniProt P51812); experiment: RSK2(R6A3CGE1) Takeda global kinase panel
[26] = target: Testis-specific serine/threonine-protein kinase 3 (Homo sapiens, UniProt Q96PN8); experiment: TSSK3(TSS3LGRM) Takeda global kinase panel

Chain of Mitogen-activated protein kinase kinase kinase kinase 4 (O95819 whole entry): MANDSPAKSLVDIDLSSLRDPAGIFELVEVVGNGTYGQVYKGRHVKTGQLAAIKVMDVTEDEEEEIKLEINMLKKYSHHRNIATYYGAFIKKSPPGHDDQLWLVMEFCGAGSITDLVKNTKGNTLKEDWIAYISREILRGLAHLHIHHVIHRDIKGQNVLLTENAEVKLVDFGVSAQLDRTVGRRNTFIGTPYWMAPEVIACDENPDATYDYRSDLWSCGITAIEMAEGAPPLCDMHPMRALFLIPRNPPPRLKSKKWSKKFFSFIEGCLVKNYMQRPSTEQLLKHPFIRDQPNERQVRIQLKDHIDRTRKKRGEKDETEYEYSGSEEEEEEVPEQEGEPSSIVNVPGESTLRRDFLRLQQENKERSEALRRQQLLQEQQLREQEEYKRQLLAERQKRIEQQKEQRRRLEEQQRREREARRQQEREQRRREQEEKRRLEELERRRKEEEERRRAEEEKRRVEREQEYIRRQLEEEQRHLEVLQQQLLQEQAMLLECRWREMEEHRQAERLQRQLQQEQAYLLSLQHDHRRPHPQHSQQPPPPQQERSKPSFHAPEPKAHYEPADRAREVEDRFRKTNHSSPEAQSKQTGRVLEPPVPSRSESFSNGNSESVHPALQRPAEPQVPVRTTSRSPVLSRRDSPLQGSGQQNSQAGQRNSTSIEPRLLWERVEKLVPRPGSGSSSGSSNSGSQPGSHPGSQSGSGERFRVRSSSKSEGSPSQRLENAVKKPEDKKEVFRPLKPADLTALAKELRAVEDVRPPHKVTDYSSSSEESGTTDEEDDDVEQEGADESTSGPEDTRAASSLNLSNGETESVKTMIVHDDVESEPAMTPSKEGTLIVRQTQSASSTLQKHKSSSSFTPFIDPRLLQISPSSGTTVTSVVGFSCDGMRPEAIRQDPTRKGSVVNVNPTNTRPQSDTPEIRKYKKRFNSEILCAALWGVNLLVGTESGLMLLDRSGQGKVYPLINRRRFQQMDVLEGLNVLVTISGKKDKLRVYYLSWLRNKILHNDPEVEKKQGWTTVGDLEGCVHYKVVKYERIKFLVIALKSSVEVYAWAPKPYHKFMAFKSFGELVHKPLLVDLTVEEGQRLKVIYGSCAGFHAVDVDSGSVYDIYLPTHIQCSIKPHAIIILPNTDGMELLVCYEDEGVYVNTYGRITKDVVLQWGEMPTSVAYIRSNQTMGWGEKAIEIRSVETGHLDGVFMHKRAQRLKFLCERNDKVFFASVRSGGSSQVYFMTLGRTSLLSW

SMILES: CN1C(=O)[C@@H](N2CCc3cn(Cc4ccccc4)nc3C2=O)COc2ccccc21 [TP-030-1]
IC50 [1]: 1000 nM
IC50 [2]: 1000 nM
IC50 [3]: 1000 nM
inhibition [4]: 5.07%
inhibition [5]: 18.8%
inhibition [6]: -4.81%
inhibition [7]: 1.77%
inhibition [8]: 9.59%
inhibition [9]: 0.6%
inhibition [10]: -4.37%
inhibition [11]: 9.8%
inhibition [12]: -0.3%
inhibition [13]: 27%

IC50 [14]: 1000 nM
IC50 [15]: 1000 nM
IC50 [16]: 1000 nM
IC50 [17]: 1000 nM
IC50 [18]: 1000 nM
IC50 [19]: 1000 nM
IC50 [20]: 1000 nM
IC50 [21]: 1000 nM
IC50 [22]: 1000 nM
IC50 [23]: 1000 nM
IC50 [24]: 1000 nM
IC50 [25]: 1000 nM
IC50 [26]: 1000 nM
SMILES: CN1C(=O)[C@@H](N2CCc3cn(CC4CCS(=O)(=O)CC4)nc3C2=O)COc2ccccc21 [TP-030n]

From ChEMBL document CHEMBL4507327 (2021)
